Measured values published in patent publication US7235577B1 (priority 2000, dated 2007).
pKd: −log10 of the molar value. Like-named read-outs stand apart in the source and are kept apart here.

What was measured:
CYP3A4 = CYP3A4 (Homo sapiens, UniProt P08684); assay: in vitro; conditions: human
Experimental: The test substances shown in Table 8 were evaluated for their inhibitory effect on the catalytic activity of human cytochrome P450 enzyme. Cytochrome P450 3A4 (CYP3A4) is involved in many drug-drug interactions and in many other pathways in the body including the catabolism of steroids and xenobiotics. Inhibition of this enzyme was measured in 96 well plates with 7-benzyloxy-4-trifluoro-methylcoumarin (BFC) as the substrate and cDNA-derived enzymes in microsomes prepared from baculovirus-infected insect cells.
The inhibition study consisted of the determination of inhibition by the test substance on CYP3A4 catalytic activity. […] The compounds were prepared as 10 mM stock solutions in acetonitrile. Metabolism of the model substrate was assayed by the production of 7-hydroxy-4-trifluoromethylcoumarin metabolite. The metabolite was detected by fluorescence.
Table 10 below provides a list of the name of enzymes examined, the catalog number of the microsomes used as a source of the enzyme, the concentration of the model substrate used, the amount of enzyme used, the final buffer concentration, and the positive control compound.
Assays were conducted in 96 well microtiter plates. The BFC substrate was initially prepared in acetonitrile. […] Six wells were used for one test. […] For the positive controls, 12 wells in a row were used for one test. The positive control inhibitor/enzyme combination was examined in duplicate rows. Wells 1 to 8 contained serial 1:3 dilutions of the inhibitors. The highest inhibitor concentration were as described in the table above. Wells 9 and 10 contained no inhibitor and wells 11 and 12 were blanks for background fluorescence (stop solution added before the enzyme).
After buffer, cofactors and inhibitor addition, the plates were pre-warmed to 37° C. Incubations were initiated by the addition of pre-warmed enzyme and substrate. The final cofactor concentrations were 1.3 mM NADP, 3.3 mM glucose-6-phosphate and 0.4 U/ml glucose-6-phosphate dehydrogenase. The final incubation volume was 0.2 ml. Incubations were carried out for 30 minutes [CYP3A4 (BFC)] and stopped by the addition of 0.075 ml of 80% acetonitrile-20% 0.5M Tris. Fluorescence per well was measured using a BMG FLUOstar fluorescence plate reader. The BFC metabolite 7-hydroxy-4-trifluoromethyl-coumarin was measured using an excitation wavelength of 410 nm and emission wavelength of 538 nm.

human IKCa1 channel = human IKCa1 channel (Homo sapiens, UniProt O15554); assay: cell-based; conditions: for IKCa1 inhibition compared with clotrimazole: refers to TABLE 8
Chain of human IKCa1 channel (O15554 whole entry): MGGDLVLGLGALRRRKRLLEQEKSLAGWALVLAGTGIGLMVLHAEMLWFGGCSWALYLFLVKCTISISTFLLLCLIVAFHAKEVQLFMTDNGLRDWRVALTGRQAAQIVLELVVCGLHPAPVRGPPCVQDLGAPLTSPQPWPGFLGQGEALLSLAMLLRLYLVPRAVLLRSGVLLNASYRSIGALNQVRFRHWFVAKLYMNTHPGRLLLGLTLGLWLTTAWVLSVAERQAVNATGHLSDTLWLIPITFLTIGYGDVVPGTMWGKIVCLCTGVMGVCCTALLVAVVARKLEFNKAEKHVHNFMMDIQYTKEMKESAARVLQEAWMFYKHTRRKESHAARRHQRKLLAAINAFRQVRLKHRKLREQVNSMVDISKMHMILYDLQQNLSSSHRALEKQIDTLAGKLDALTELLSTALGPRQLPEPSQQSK
Experimental: COS-7 cells, maintained in Dulbecco's modified Eagle's medium (DMEM) containing 10% heat-inactivated fetal calf serum, 4 mM L-glutamine and 1 mM Na^+ pyruvate, were transiently transfected with hlKCa1.
(§1) Electrophysiological experiments were carried out in the whole-cell configuration of the patch-clamp technique using an EPC-9 amplifier (HEKA Elektronik, Lambrecht Germany) interfaced to a computer running acquisition and analysis software (Pulse and Pulsfit; HEKA Elektronik). Pipettes were pulled from soft glass capillaries, coated with Sylgard (Dow-Corning, Midland, Mich.), and fire polished to resistances of 2.0–4.5 MΩ measured in the bath. COS-7 cells were trypsinized and plated on glass coverslips 3 h before measurement. […] To prevent activation of the native chloride channels in COS-7 cells an aspartate Ringer solution was used as an external solution (160 mM Na^+ aspartate, 4.5 mM KCl, 2 mM CaCl2, 1 mM MgCl2, 5 mM HEPES, adjusted to pH 7.4 with NaOH, with an osmolarity of 290–310 mosM). 200 ms voltage ramps from −120 mV to 40 mV every 10 s were used. The holding potential in all experiments was −80 mV. Series resistance compensation was not employed. The reduction of slope conductance at −80 mV was used to determine the Kd-value by fitting the values to the Hill equation with a Hill coefficient of unity.

[1] = Hydrolytic stability by HPLC; conditions: pH 5.0, 37° C.
Experimental: A Waters 590 liquid chromatograph with a Waters 746 integrator and a Waters 486 UVN is detector, and a 25 cm Lichrospher RP18 column (5-μM particle size) was used. The mobile phase consisted of K2HPO4 25 mM, KH2PO4 30 mM, methanol at 262:13:725. The chromatographic separation was performed at 20° C. with a flow rate of 1.0 ml/min, the absorbance of the elluent was monitored at 210 nm.
Hydrolysis profiles (10 μM compound with 20% acetonitrile) were carried out in Soerensen phosphate buffer (pH 7.4 and pH 5.0) in a total volume of 10 ml. 100 μl samples were collected 0, 1, 2, 3, 4, 5, 24, 48 and 72 hours after incubation, with shaking, in a waterbath at 37° C. and manually injected into the HPLC over Rheodyne 7125 system. For profiles at pH 1.0 artificial stomach fluid (DAB 9), containing 2 g NaCl, 3,2 g pepsin and 80 ml 1 M HCL in 1.0 L of water was used. After 0, 1 and 2 hours 400 μl of sample were collected and extracted three times with 500 μl of ethyl ether by vortexing. The combined extracts were than evaporated to dryness by passing nitrogen through the solution. The residue was than dissolved in 400 μl of mobile phase of which […] were injected in the HPLC.

COS-7 chloride channel = assay: Selectivity patch clamp, native chloride channels in COS-7 cells; assay type: cell-based, African green monkey; conditions: native chloride channel of COS-7 cells
Experimental: as §1
Recordings from the Jurkat SKCa channel were made in K^+ aspartate Ringer (Na^+ was replaced by K^+) with the same internal pipette solution. […]

[2] = hIKCa1 in COS-7 cells, reduction of slope conductance at −80 mV, 1 μM free Ca++ in pipette

Chain of CYP3A4 (P08684 whole entry): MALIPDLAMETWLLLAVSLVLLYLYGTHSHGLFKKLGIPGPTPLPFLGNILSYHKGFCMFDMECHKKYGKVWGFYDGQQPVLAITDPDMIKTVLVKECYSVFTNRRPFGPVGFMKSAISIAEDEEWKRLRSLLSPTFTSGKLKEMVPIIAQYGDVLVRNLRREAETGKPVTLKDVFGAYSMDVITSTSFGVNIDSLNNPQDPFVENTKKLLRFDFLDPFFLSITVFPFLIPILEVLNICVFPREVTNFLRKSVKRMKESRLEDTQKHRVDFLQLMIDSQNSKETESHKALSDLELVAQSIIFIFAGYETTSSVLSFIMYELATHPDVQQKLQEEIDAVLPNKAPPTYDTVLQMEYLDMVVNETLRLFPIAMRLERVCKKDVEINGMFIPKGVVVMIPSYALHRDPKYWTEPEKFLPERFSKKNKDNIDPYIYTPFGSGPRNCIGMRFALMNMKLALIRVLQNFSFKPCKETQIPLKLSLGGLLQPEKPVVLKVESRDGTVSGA

Structure (SMILES)	inhibition at 30 min, 10 μM (CYP3A4)	pKd (human IKCa1 channel)	melting point	other results
N#CC(c1ccccc1)(c1ccccc1)c1ccccc1F [Compound T40, 2-(2-Fluorophenyl)2,2-diphenylacetonitrile]	9%	7.22	144 °C	IKCa1 inhibition compared with clotrimazole (human IKCa1 channel): more potent inhibitors of IKCa1 channels than clotrimazole
CCOC(=O)C(C(=O)OCC)C(c1ccccc1)(c1ccccc1)c1ccccc1 [Compound T74]	4%			pKd (human IKCa1 channel; read-out: Kd for block of IKCa1, hIKCa1 in COS-7 cells, reduction of slope conductance at −80 mV, 1 μM free Ca++ in pipette): 6.22
OC(c1ccccc1)(c1ccccc1)c1ccccc1Cl [Compound T3, (2-Chlorophenyl)diphenyl methanol]	-30.5%	6.28	91 °C	
Clc1ccccc1C(Nc1ccncc1)(c1ccccc1)c1ccccc1 [Compound T67, N-[(2-Chlorophenyl)diphenylmethyl]-N-(4-pyridyl)amine]	74%	4.52		
c1ccc(C(c2ccccc2)(c2ccccc2)N2CCCC2)cc1 [Compound T7, 1-Tritylpyrrolidine]		4.52	126 °C	
CC(=O)NC(c1ccccc1)(c1ccccc1)c1ccccc1Cl [Compound T75, N-(2-chlorophenyl)diphenylmethyl acetamide]	-54%	5.92		
OC(c1ccccc1)(c1ccccc1)c1ccc(Cl)cc1 [Compound T1, (4-Chlorophenyl)diphenyl methanol]		6.26	82 °C	
FC(F)(F)c1ccccc1C(c1ccccc1)(c1ccccc1)n1cccn1 [Compound T58, 1-{Diphenyl[2-(trifluoromethyl)-phenyl]methyl}-1H-pyrazole]	-26%	5.30		
N#CC(c1ccccc1)(c1ccccc1)c1ccccc1Cl [Compound T39, 2-(2-Chlorophenyl)2,2-diphenylacetonitrile]	10%	7.22		IKCa1 inhibition compared with clotrimazole (human IKCa1 channel): more potent inhibitors of IKCa1 channels than clotrimazole
OC(c1ccccc1)(c1ccc(Cl)cc1)c1ccc(Cl)cc1 [Compound T4, Bis-(4-chlorophenyl)phenyl methanol]			86 °C	Kd for block of IKCa1 (human IKCa1 channel; [2]): No effect at 1 μM
Clc1ccccc1C(Nc1nccs1)(c1ccccc1)c1ccccc1 [Compound T66, N-[(2-Chlorophenyl)diphenylmethyl]-N-(1,3-thiazol-2yl)amine]	86.5%	4.82		
CC(=O)NC(c1ccccc1)(c1ccccc1)c1ccccc1C(F)(F)F [Compound T83, N-(2-Trifluoromethylphenyl)diphenylmethyl acetamide]		5.82	185 °C	
Clc1ccccc1C(c1ccccc1)(c1ccccc1)n1ccnc1 [Clotrimazole, reference compound]				inhibition at 30 min, 0.1 μM (CYP3A4): 99%; hydrolysis: % T3 formed ([1]; after 48 h): 22%; hydrolysis: % T3 formed ([1]; after 72 h): 35%; Block of COS-7 (Cl) (COS-7 chloride channel): no effect at 10 μM (n =
c1ccc(C(NCc2ccc(CNC(c3ccccc3)(c3ccccc3)c3ccccc3)cc2)(c2ccccc2)c2ccccc2)cc1 [Compound T23, 1,4-Ditritylaminomethyl benzene]			201 °C	Kd for block of IKCa1 (human IKCa1 channel; [2]): No effect at 1 μM
